Test results: article PMC11364775, “Ion occupancy of the selectivity filter controls opening of a cytoplasmic gate in the K2P channel TALK-2” (Nature Communications, 2024)

Target: T1, WT TREK-2 channels (Homo sapiens, UniProt P57789)
T1 construct: expressed in transfected cells; host or cells: Xenopus laevis oocytes (cRNA injection), excised inside-out patches
T1 sequence (P57789 1-538): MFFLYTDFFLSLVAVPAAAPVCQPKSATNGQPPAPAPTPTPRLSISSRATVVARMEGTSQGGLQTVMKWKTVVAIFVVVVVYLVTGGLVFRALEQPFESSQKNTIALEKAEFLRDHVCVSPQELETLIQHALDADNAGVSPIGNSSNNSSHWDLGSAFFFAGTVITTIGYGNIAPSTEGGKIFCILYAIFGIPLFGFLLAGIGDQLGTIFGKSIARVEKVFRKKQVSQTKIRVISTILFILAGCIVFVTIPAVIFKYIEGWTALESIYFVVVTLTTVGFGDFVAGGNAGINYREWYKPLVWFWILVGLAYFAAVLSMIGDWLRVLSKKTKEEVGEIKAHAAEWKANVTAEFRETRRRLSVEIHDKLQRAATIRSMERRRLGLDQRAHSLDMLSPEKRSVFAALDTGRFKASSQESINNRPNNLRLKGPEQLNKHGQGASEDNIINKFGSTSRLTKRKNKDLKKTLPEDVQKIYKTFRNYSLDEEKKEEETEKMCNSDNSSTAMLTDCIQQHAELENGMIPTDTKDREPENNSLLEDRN
Test: Conductance-voltage (G-V) curves from tail currents, V1/2 (intracellular Rb+)
Assay type: cell-based
Excerpt: The voltage-dependent activation mechanism of the SF gate in K2P channels allows to estimate the electrical work (ΔG = zFΔV1/2) required for pore opening by fitting the G–V curve to a Boltzmann equation. […] The open state represents the situation of both gates being simultaneously open but voltage can only exert force on the SF gate that functions as voltage sensor. […] We further tested whether mutations that open the lower gate (L262A and L264A) would affect the extracellular pH sensitivity. […] We further explored this concept of allosteric coupling using the mutations identified in the functional alanine screen of TM2 and TM4. […]
Conductance-voltage (G–V) relationships were determined from tail currents recorded at a holding potential (VH) of −80 mV after 300 ms depolarizing steps as indicated in the respective figure legend. Data were analyzed with a single Boltzmann fit following Eq. 6:6 GV=Imax/1+e^V−V1/2/slope+Ibase where V1/2 represents the voltage of half-maximal activation, s is the slope factor and Imax and Ibase represent the upper and lower asymptotes. Under appropriate experimental conditions, you can use slope to calculate the valence (charge) of the ion moving across the channel. Slope equals R * T/ z * F where R is the universal gas constant, T is temperature in K, F is the Faraday constant, and z is the valence.

## CCCCC[N+](CCCCC)(CCCCC)CCCCC [TPenA, Tetra-pentyl-ammonium chloride]
TREK-2, intracellular Rb+
  effect of TPenA on the G-V curve: not affected
TREK-2 WT + 0.1 mM TPenA, Voltage 0.000
  Normalized current: 0.142
TREK-2 WT + 0.1 mM TPenA, Voltage 0.005
  Normalized current: 0.177
TREK-2 WT + 0.1 mM TPenA, Voltage 0.010
  Normalized current: 0.238
TREK-2 WT + 0.1 mM TPenA, Voltage 0.015
  Normalized current: 0.307
TREK-2 WT + 0.1 mM TPenA, Voltage 0.020
  Normalized current: 0.404
TREK-2 WT + 0.1 mM TPenA, Voltage 0.025
  Normalized current: 0.485
TREK-2 WT + 0.1 mM TPenA, Voltage 0.030
  Normalized current: 0.577
TREK-2 WT + 0.1 mM TPenA, Voltage 0.035
  Normalized current: 0.667
TREK-2 WT + 0.1 mM TPenA, Voltage 0.040
  Normalized current: 0.719
TREK-2 WT + 0.1 mM TPenA, Voltage 0.045
  Normalized current: 0.784
TREK-2 WT + 0.1 mM TPenA, Voltage 0.050
  Normalized current: 0.838
TREK-2 WT + 0.1 mM TPenA, Voltage 0.055
  Normalized current: 0.851
TREK-2 WT + 0.1 mM TPenA, Voltage 0.060
  Normalized current: 0.883
TREK-2 WT + 0.1 mM TPenA, Voltage 0.065
  Normalized current: 0.906
TREK-2 WT + 0.1 mM TPenA, Voltage 0.070
  Normalized current: 0.921
TREK-2 WT + 0.1 mM TPenA, Voltage 0.075
  Normalized current: 0.924
TREK-2 WT + 0.1 mM TPenA, Voltage 0.080
  Normalized current: 0.944
TREK-2 WT + 0.1 mM TPenA, Voltage 0.085
  Normalized current: 0.936
TREK-2 WT + 0.1 mM TPenA, Voltage 0.090
  Normalized current: 0.949
TREK-2 WT + 0.1 mM TPenA, Voltage 0.095
  Normalized current: 0.963
TREK-2 WT + 0.1 mM TPenA, Voltage 0.100
  Normalized current: 0.966
TREK-2 WT + 0.1 mM TPenA, Voltage 0.105
  Normalized current: 0.964
TREK-2 WT + 0.1 mM TPenA, Voltage 0.110
  Normalized current: 0.962
TREK-2 WT + 0.1 mM TPenA, Voltage 0.115
  Normalized current: 0.961
TREK-2 WT + 0.1 mM TPenA, Voltage 0.120
  Normalized current: 0.949
TREK-2 WT + 0.1 mM TPenA, Voltage 0.125
  Normalized current: 0.915
TREK-2 WT + 0.1 mM TPenA, Voltage 0.130
  Normalized current: 0.965
TREK-2 WT + 0.1 mM TPenA, Voltage 0.135
  Normalized current: 0.962
TREK-2 WT + 0.1 mM TPenA, Voltage 0.140
  Normalized current: 0.941
TREK-2 WT + 0.1 mM TPenA, Voltage 0.145
  Normalized current: 0.970
TREK-2 WT + 0.1 mM TPenA, Voltage 0.150
  Normalized current: 0.939
TREK-2 WT + 0.1 mM TPenA, Voltage -0.005
  Normalized current: 0.115
TREK-2 WT + 0.1 mM TPenA, Voltage -0.010
  Normalized current: 0.097
TREK-2 WT + 0.1 mM TPenA, Voltage -0.015
  Normalized current: 0.086
TREK-2 WT + 0.1 mM TPenA, Voltage -0.020
  Normalized current: 0.073
TREK-2 WT + 0.1 mM TPenA, Voltage -0.025
  Normalized current: 0.072
TREK-2 WT + 0.1 mM TPenA, Voltage -0.030
  Normalized current: 0.066
TREK-2 WT + 0.1 mM TPenA, Voltage -0.035
  Normalized current: 0.062
TREK-2 WT + 0.1 mM TPenA, Voltage -0.040
  Normalized current: 0.062
TREK-2 WT + 0.1 mM TPenA, Voltage -0.045
  Normalized current: 0.059
TREK-2 WT + 0.1 mM TPenA, Voltage -0.050
  Normalized current: 0.058
TREK-2 WT + 0.1 mM TPenA, Voltage -0.055
  Normalized current: 0.055
TREK-2 WT + 0.1 mM TPenA, Voltage -0.060
  Normalized current: 0.055
TREK-2 WT + 0.1 mM TPenA, Voltage -0.065
  Normalized current: 0.050
TREK-2 WT + 0.1 mM TPenA, Voltage -0.070
  Normalized current: 0.049
TREK-2 WT + 0.1 mM TPenA, Voltage -0.075
  Normalized current: 0.050
TREK-2 WT + 0.1 mM TPenA, Voltage -0.080
  Normalized current: 0.048
TREK-2 WT + 0.1 mM TPenA, Voltage -0.085
  Normalized current: 0.046
TREK-2 WT + 0.1 mM TPenA, Voltage -0.090
  Normalized current: 0.044
TREK-2 WT + 0.1 mM TPenA, Voltage -0.095
  Normalized current: 0.044
TREK-2 WT + 1 mM TPenA, Voltage 0.000
  Normalized current: 0.164
TREK-2 WT + 1 mM TPenA, Voltage 0.005
  Normalized current: 0.199
TREK-2 WT + 1 mM TPenA, Voltage 0.010
  Normalized current: 0.243
TREK-2 WT + 1 mM TPenA, Voltage 0.015
  Normalized current: 0.286
TREK-2 WT + 1 mM TPenA, Voltage 0.020
  Normalized current: 0.362
TREK-2 WT + 1 mM TPenA, Voltage 0.025
  Normalized current: 0.446
TREK-2 WT + 1 mM TPenA, Voltage 0.030
  Normalized current: 0.519
TREK-2 WT + 1 mM TPenA, Voltage 0.035
  Normalized current: 0.589
TREK-2 WT + 1 mM TPenA, Voltage 0.040
  Normalized current: 0.634
TREK-2 WT + 1 mM TPenA, Voltage 0.045
  Normalized current: 0.688
TREK-2 WT + 1 mM TPenA, Voltage 0.050
  Normalized current: 0.702
TREK-2 WT + 1 mM TPenA, Voltage 0.055
  Normalized current: 0.751
TREK-2 WT + 1 mM TPenA, Voltage 0.060
  Normalized current: 0.768
TREK-2 WT + 1 mM TPenA, Voltage 0.065
  Normalized current: 0.790
TREK-2 WT + 1 mM TPenA, Voltage 0.070
  Normalized current: 0.818
TREK-2 WT + 1 mM TPenA, Voltage 0.075
  Normalized current: 0.805
TREK-2 WT + 1 mM TPenA, Voltage 0.080
  Normalized current: 0.838
TREK-2 WT + 1 mM TPenA, Voltage 0.085
  Normalized current: 0.838
TREK-2 WT + 1 mM TPenA, Voltage 0.090
  Normalized current: 0.887
TREK-2 WT + 1 mM TPenA, Voltage 0.095
  Normalized current: 0.885
TREK-2 WT + 1 mM TPenA, Voltage 0.100
  Normalized current: 0.885
TREK-2 WT + 1 mM TPenA, Voltage 0.105
  Normalized current: 0.883
TREK-2 WT + 1 mM TPenA, Voltage 0.110
  Normalized current: 0.905
TREK-2 WT + 1 mM TPenA, Voltage 0.115
  Normalized current: 0.909
TREK-2 WT + 1 mM TPenA, Voltage 0.120
  Normalized current: 0.967
TREK-2 WT + 1 mM TPenA, Voltage 0.125
  Normalized current: 0.928
TREK-2 WT + 1 mM TPenA, Voltage 0.130
  Normalized current: 0.900
TREK-2 WT + 1 mM TPenA, Voltage 0.135
  Normalized current: 0.929
TREK-2 WT + 1 mM TPenA, Voltage 0.140
  Normalized current: 0.939
TREK-2 WT + 1 mM TPenA, Voltage 0.145
  Normalized current: 0.922
TREK-2 WT + 1 mM TPenA, Voltage 0.150
  Normalized current: 0.939
TREK-2 WT + 1 mM TPenA, Voltage -0.005
  Normalized current: 0.135
TREK-2 WT + 1 mM TPenA, Voltage -0.010
  Normalized current: 0.126
TREK-2 WT + 1 mM TPenA, Voltage -0.015
  Normalized current: 0.111
TREK-2 WT + 1 mM TPenA, Voltage -0.020
  Normalized current: 0.109
TREK-2 WT + 1 mM TPenA, Voltage -0.025
  Normalized current: 0.110
TREK-2 WT + 1 mM TPenA, Voltage -0.030
  Normalized current: 0.103
TREK-2 WT + 1 mM TPenA, Voltage -0.035
  Normalized current: 0.102
TREK-2 WT + 1 mM TPenA, Voltage -0.040
  Normalized current: 0.096
TREK-2 WT + 1 mM TPenA, Voltage -0.045
  Normalized current: 0.095
TREK-2 WT + 1 mM TPenA, Voltage -0.050
  Normalized current: 0.089
TREK-2 WT + 1 mM TPenA, Voltage -0.055
  Normalized current: 0.092
TREK-2 WT + 1 mM TPenA, Voltage -0.060
  Normalized current: 0.088
TREK-2 WT + 1 mM TPenA, Voltage -0.065
  Normalized current: 0.090
TREK-2 WT + 1 mM TPenA, Voltage -0.070
  Normalized current: 0.088
TREK-2 WT + 1 mM TPenA, Voltage -0.075
  Normalized current: 0.085
TREK-2 WT + 1 mM TPenA, Voltage -0.080
  Normalized current: 0.084
TREK-2 WT + 1 mM TPenA, Voltage -0.085
  Normalized current: 0.087
TREK-2 WT + 1 mM TPenA, Voltage -0.090
  Normalized current: 0.084
TREK-2 WT + 1 mM TPenA, Voltage -0.095
  Normalized current: 0.081
